Results as given in ChEMBL document CHEMBL1697781, “Assessment of the health effects of chemicals in humans: II. Construction of an adverse effects database for QSAR modeling” (Curr Drug Discov Technol, 2004).

What was measured:
Details in all cases: human; call rule not given here
[1] = system: Hepatotoxicity; test: FDA HLAED, serum glutamic pyruvic transaminase (SGPT) increase
[2] = system: Hepatotoxicity; test: FDA HLAED, lactate dehydrogenase (LDH) increase
[3] = system: Hepatotoxicity; test: FDA HLAED, alkaline phosphatase increase
[4] = system: Hepatotoxicity; test: FDA HLAED, gamma-glutamyl transferase (GGT) increase
[5] = system: Hepatotoxicity; test: FDA HLAED, liver enzyme composite activity
[6] = system: Hepatotoxicity; test: FDA HLAED, serum glutamic oxaloacetic transaminase (SGOT) increase
Wherever GGT Increase - Index Value is given: reference of the scale not given here.
Wherever LDH Increase - Index Value is given: reference of the scale not given here.

Compound: Cc1cc(CC(=O)O)n(C)c1C(=O)c1ccc(Cl)cc1 [ZOMEPIRAC]
- SGPT Increase - Activity Score [1]: Inactive
- SGPT Increase - Index Value [1]: 0.7
- SGPT Increase - Number of Reports [1]: >= 4
- LDH Increase - Activity Score [2]: Inactive
- LDH Increase - Index Value [2]: 0.7
- LDH Increase - Number of Reports [2]: >= 4
- Alkaline Phosphatase Increase - Activity Score [3]: Inactive
- Alkaline Phosphatase Increase - Index Value [3]: 1.1
- Alkaline Phosphatase Increase - Number of Reports [3]: >= 4
- GGT Increase - Activity Score [4]: Inactive
- GGT Increase - Index Value [4]: 0
- GGT Increase - Number of Reports [4]: < 4
- Composite Activity - Active [5]: 0
- Composite Activity - Marginal [5]: 0
- Composite Activity - Score [5]: Inactive
- SGOT Increase - Activity Score [6]: Inactive
- SGOT Increase - Index Value [6]: 1.1
- SGOT Increase - Number of Reports [6]: >= 4

Compound: NYSTATIN
- SGPT Increase - Activity Score [1]: Inactive
- SGPT Increase - Index Value [1]: 0
- SGPT Increase - Number of Reports [1]: < 4
- LDH Increase - Activity Score [2]: Inactive
- LDH Increase - Index Value [2]: 0
- LDH Increase - Number of Reports [2]: < 4
- Alkaline Phosphatase Increase - Activity Score [3]: Inactive
- Alkaline Phosphatase Increase - Index Value [3]: 0.3
- Alkaline Phosphatase Increase - Number of Reports [3]: < 4
- GGT Increase - Activity Score [4]: Inactive
- GGT Increase - Index Value [4]: 0
- GGT Increase - Number of Reports [4]: < 4
- Composite Activity - Active [5]: 0
- Composite Activity - Marginal [5]: 0
- Composite Activity - Score [5]: Inactive
- SGOT Increase - Activity Score [6]: Inactive
- SGOT Increase - Index Value [6]: 0
- SGOT Increase - Number of Reports [6]: < 4
